# In PubChem BioAssay (NCI):
#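 Abbreviation: GI50, concentration required for 50% inhibition of growth. TGI: total growth inhibition.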
# Key:
# Experiment in all cases: NCI-60 cell line screen, 384-well format
# [1] = test system: HOP-92 NSCLC
# [2] = test system: ACHN renal
# [3] = test system: UACC-257 melanoma
# [4] = test system: NCI-H460 NSCLC
# [5] = test system: EKVX NSCLC
# [6] = test system: NCI-H23 lung
# [7] = test system: SK-MEL-5 melanoma
# [8] = test system: SK-MEL-2 melanoma
# [9] = test system: OVCAR-5 ovarian
# [10] = test system: UO-31 renal
# [11] = test system: SN12C renal
# [12] = test system: SF-539 CNS
# [13] = test system: BT-549 breast
# [14] = test system: MDA-MB-435 melanoma
# [15] = test system: CAKI-1 renal
# [16] = test system: MCF7 breast
# [17] = test system: MOLT-4 leukemia
# [18] = test system: MALME-3M melanoma
# [19] = test system: SF-295 CNS
# [20] = test system: K-562 leukemia
# [21] = test system: OVCAR-4 ovarian
# [22] = test system: HCT-116 colon
# [23] = test system: SW-620 colon
# [24] = test system: SR leukemia
# [25] = test system: MDA-MB-231 breast
# [26] = test system: UACC-62 melanoma
# [27] = test system: 786-0 renal
# [28] = test system: IGROV1 ovarian
# [29] = test system: NCI-H322M lung
# [30] = test system: TK-10 renal
# [31] = test system: MDA-MB-468 breast
# [32] = test system: HL-60(TB) leukemia
# [33] = test system: A549 NSCLC
# [34] = test system: A498 renal
# [35] = test system: DU-145 prostate
# [36] = test system: SNB-75 CNS
# [37] = test system: HCT-15 colon
# [38] = test system: HOP-62 NSCLC
# [39] = test system: RXF 393 renal
# [40] = test system: HS 578T breast
# [41] = test system: SK-MEL-28 melanoma
# [42] = test system: SF-268 CNS
# [43] = test system: T-47D breast
# [44] = test system: NCI-H226 lung
# [45] = test system: SK-OV-3 ovarian
# [46] = test system: HT29 colon
# [47] = test system: U251 glioblastoma
# [48] = test system: OVCAR-8 ovarian
# [49] = test system: OVCAR-3 ovarian
# [50] = test system: COLO 205 colon
# [51] = test system: PC-3 prostate
# [52] = test system: SNB-19 CNS
# [53] = test system: NCI-H522 lung
# [54] = test system: KM12 colon
smiles,measurement,setting,value
CC[C@@H]1C(=O)N(C)c2cnc(Nc3ccc(C(=O)NC4CCC(N5CCN(CC6CC6)CC5)CC4)cc3OC)nc2N1C(C)C (stereo partly drawn),GI50,[1],96.9 nM
same,TGI,[1],1700 nM
same,GI50,[2],89.2 nM
same,TGI,[2],1660 nM
same,GI50,[3],1160 nM
same,TGI,[3],2390 nM
same,GI50,[4],< 10 nM
same,TGI,[4],1280 nM
same,GI50,[5],37.1 nM
same,TGI,[5],235 nM
same,GI50,[6],< 10 nM
same,TGI,[6],28.2 nM
same,GI50,[7],14.7 nM
same,TGI,[7],127 nM
same,GI50,[8],< 10 nM
same,TGI,[8],26.7 nM
same,GI50,[9],38.9 nM
same,TGI,[9],1710 nM
same,GI50,[10],589 nM
same,TGI,[10],1870 nM
same,GI50,[11],232 nM
same,TGI,[11],3340 nM
same,GI50,[12],30.5 nM
same,TGI,[12],159 nM
same,GI50,[13],19.6 nM
same,TGI,[13],159 nM
same,GI50,[14],< 10 nM
same,TGI,[14],13.7 nM
same,GI50,[15],100 nM
same,TGI,[15],1540 nM
same,GI50,[16],11 nM
same,TGI,[16],1270 nM
same,GI50,[17],< 10 nM
same,TGI,[17],< 10 nM
same,GI50,[18],44.6 nM
same,TGI,[18],1760 nM
same,GI50,[19],31.4 nM
same,TGI,[19],1510 nM
same,GI50,[20],< 10 nM
same,TGI,[20],23.8 nM
same,GI50,[21],222 nM
same,TGI,[21],1120 nM
same,GI50,[22],< 10 nM
same,TGI,[22],1030 nM
same,GI50,[23],< 10 nM
same,TGI,[23],107 nM
same,GI50,[24],< 10 nM
same,TGI,[24],< 10 nM
same,GI50,[25],42.4 nM
same,TGI,[25],1790 nM
same,GI50,[26],27.9 nM
same,TGI,[26],1530 nM
same,GI50,[27],90.7 nM
same,TGI,[27],1150 nM
same,GI50,[28],44.2 nM
same,TGI,[28],1170 nM
same,GI50,[29],66 nM
same,TGI,[29],1100 nM
same,GI50,[30],66.6 nM
same,TGI,[30],1390 nM
same,GI50,[31],< 10 nM
same,TGI,[31],< 10 nM
same,GI50,[32],< 10 nM
same,TGI,[32],< 10 nM
same,GI50,[33],41.6 nM
same,TGI,[33],1040 nM
same,GI50,[34],69.6 nM
same,TGI,[34],1260 nM
same,GI50,[35],16.6 nM
same,TGI,[35],1200 nM
same,GI50,[36],71.4 nM
same,TGI,[36],2100 nM
same,GI50,[37],35.8 nM
same,TGI,[37],549 nM
same,GI50,[38],23.3 nM
same,TGI,[38],1160 nM
same,GI50,[39],< 10 nM
same,TGI,[39],10.6 nM
same,GI50,[40],19.5 nM
same,TGI,[40],49.7 nM
same,GI50,[41],87.6 nM
same,TGI,[41],2120 nM
same,GI50,[42],32.1 nM
same,TGI,[42],1310 nM
same,GI50,[43],191 nM
same,TGI,[43],897 nM
same,GI50,[44],151 nM
same,TGI,[44],1750 nM
same,GI50,[45],21.3 nM
same,TGI,[45],176 nM
same,GI50,[46],< 10 nM
same,TGI,[46],11.1 nM
same,GI50,[47],40.8 nM
same,TGI,[47],1420 nM
same,GI50,[48],18.1 nM
same,TGI,[48],38.5 nM
same,GI50,[49],< 10 nM
same,TGI,[49],145 nM
same,GI50,[50],< 10 nM
same,TGI,[50],1310 nM
same,GI50,[51],53.4 nM
same,TGI,[51],2630 nM
same,GI50,[52],96.8 nM
same,TGI,[52],2970 nM
same,GI50,[53],< 10 nM
same,TGI,[53],< 10 nM
same,GI50,[54],10.3 nM
same,TGI,[54],50.7 nM
